System: IL-13
Test: Human primary Th2 cells, anti-CD3/anti-CD28 activated, IL-13 ELISA
Type: cell-based
Procedure: Briefly, CD4^+CD45RA^+ T cells, isolated from donor peripheral blood mononuclear cells of healthy donors, are educated in the presence of anti-CD3/CD28 antibodies and various growth factors to obtain either a Thl-like or Th2-like phenotypes as determined by the known cytokine profiles of these two cell types.
Peripheral blood mononuclear cells (PBMC) are prepared from human blood by Ficoll-Hypacque (Pharmacia). The cells are washed two times in Hanks balanced salt solution (HBSS) and counted.
Naive T cells (CD4^+/CD45RA ) are prepared by negative selection method using following antibodies and Dynabeads: anti-CD8, anti-HLA-DR, (where HLA means human leucocyte antigen) anti-CD14, anti-CD16, anti-CD19, anti-CD45RO antibodies (all from R&D Systems, 1-2 µg/ml) are added to the cells, and the cells are kept on ice for 30 min. The cells are washed two times in HBSS, and goat anti- mouse Ig-beads, (bead:target ratio, 5:1) are added. The cells and beads are slowly rotated at 4°C for 20 min. (following the protocol supplied from Dynal). The supernatant is removed and fresh goat anti-mouse Ig-beads are added to the supernatant, which is slowly rotated at 4°C for 20 min. The cells are counted and phenotypically characterized by flow cytometric analysis.
CD4^+/CD45RA^+ cells at a density of 10^6/ml in RPMI, is prepared and added to RPMI medium containing 10% Hyclone serum/ glutamine and 1-2 µg/ml anti-CD28 Ab. The cells are split in two aliquots. For Th1 cells: anti-IL-4 Ab (1-2 µg/ml), IFN-γ (1 µg/ml, or 5000 units/ml) are added to the wells. For Th2 cells: IL-4 (100-200 ng/ml), anti-IFN-γ neutralizing Ab (1-2 µg/ml), anti-IL-12 neutralizing Ab (1-2 µg/ml) are added into the wells. […] The cells are transferred to fresh wells and grown in 200 units/ml IL-2 for 2 weeks by feeding them every other day with IL-2 containing medium and splitting the cultures 1:2 or 1:3 as needed. The degree of polarization is determined by intracellular staining of cells with anti-IFN-γ and anti-IL-4 antibodies from Pharmingen, and using flow cytometry from Becton Dickinson (BD), according to manufacturers description. The cells are stimulated with PHA and alloantigens at day 14 and 28 as described below. Eight days after the second allostimulation the cells can be used for compound screening or frozen for future use. For compound testing, large quantities of Th1 and Th2 cells derived from a given donor (NYTh1 and NYTh2) were expanded and frozen as aliquots in liquid nitrogen. The cells are thawed and cultured as and when needed. The thawed cells are stimulated with alloantigen/PHA combination. The cells are used for compound screening after 8-10 days in culture.
Re-stimulation by allogeneic cells: Human PBMCs, to be used as alloantigens, are isolated from freshly drawn blood by Ficoll separation. […] Cells are counted and diluted to a final concentration of 2 x 10^6/ml in medium containing 10 µg/ml PHA and 200 units/ml IL-2.
Ninetysix well Falcon tissue culture plates (Fisher Scientific) are coated with 100 microliters per well of 10 µg/ml anti-CD3 (PharMingen) antibody in phosphate buffered saline (PBS) and stored at 4°C one day before the experiment.
On the day of assay, anti-CD3 antibody coated plates are washed with PBS once to remove all soluble anti-CD3 antibody. […] All compounds and controls are assayed in triplicates.

O=C(O)c1[nH]c2ccccc2c1Nc1ccncc1 [Example 28, 3-(4-Pyridinylamino)-1H-indole-2-carboxylic acid]
activity at 0.01 µM (Homo sapiens, 0.01 µM, 48 hr, read-out: IL-13 (% control) mean): 91% | activity at 0.03 µM (Homo sapiens, 0.03 µM, 48 hr, read-out: IL-13 (% control) mean): 86.4% | activity at 0.1 µM (Homo sapiens, 0.1 µM, 48 hr, read-out: IL-13 (% control) mean): 82.3% | activity at 0.3 µM (Homo sapiens, 0.3 µM, 48 hr, read-out: IL-13 (% control) mean): 80.6% | activity at 1 µM (Homo sapiens, 1 µM, 48 hr, read-out: IL-13 (% control) mean): 75.2% | activity at 3 µM (Homo sapiens, 3 µM, 48 hr, read-out: IL-13 (% control) mean): 73.4% | activity at 10 µM (Homo sapiens, 10 µM, 48 hr, read-out: IL-13 (% control) mean): 68.4% | IC50 (Human primary Th2 cells, combined data from 10 different experiments): ~10 µM
